The source of these data is patent US8518876B2, “Composition for long-acting peptide analogs” (Pharmaln Corporation, priority 2007, dated 2013).

Series [1] can be described thus: Solubility in water of the synthesized peptide. The class given is physicochemical. The conditions noted are these: in words.
Series [2] concerns human umbilical chord artery endothelial cells (HUAEC). Nature of the series: Ca-influx after vasopressin analog stimulation of HUAEC, samples pre-incubated in human serum. Format: cell-based. The arrangement: key to Activity of Various Vasopressin Analogs, 0 h / Activity of Various Vasopressin Analogs, 1 h / Activity of Various Vasopressin Analogs, 2 h / Activity of Various Vasopressin Analogs, 4 h: “−” for no detectable activity; “+” to “+++” for slight to high activity; “+” to “+++” for slight to high activity; “+” to “+++” for slight to high activity. An excerpt:
Ca-influx after vasopressin analog stimulation of human umbilical chord artery endothelial cells (HUAEC) was used to test the biological activity of the various vasopressin analogs. The material used were: 75 cm^2 tissue culture flasks, BD Bioscience, Bedford Mass. (catalogue number 137787) with 0.2 μm vented blue plug seal caps (catalogue number 353136); human umbilical artery endothelial cells (HUAEC), Lonza, Walkersville, Md. (catalogue number CC-2520); EGM-2 fully supplement medium, Lonza, Walkersville, Md. (catalogue number CC-3162); Fura-2 AM, Invitrogen/Molecular Probes, Carlsbad, Calif. (catalogue number F-1221) (Fura-2 AM is a high affinity, intracellular calcium indicator that is ratiometric and UV light-excitable; the acetoxymethyl (AM) ester form is useful for noninvasive intracellular loading as it is cell permeable. Once inside the cell the ester is clipped which renders the Fura-2 molecule cell impermeable and therefore trapped inside.); terlipressin derivatives custom made by Anaspec, San Jose Calif., according to inventors specifications; pooled human serum, Sigma, St. Louis, Mo. (catalogue number H4522); phosphate buffered saline (PBS), Fisher Scientific, Fair Lawn, N.J. (catalogue number BP399-500); trypsin-EDTA solution, 0.25%, Invitrogen/Gibco, Carlsbad, Calif. (catalogue number 25200-072); heat inactivated fetal bovine serum (FBS), Invitrogen/Gibco, Carlsbad, Calif. (catalogue number 10438-026); black polystyrene 96 well flat-bottom assay plates, Corning Inc., Corning, N.Y. (catalogue number 3916); Chameleon plate multilabel detection reader, Hidex, Turku, Finland, distributed by Bioscan, Washington, D.C.; dimethyl sulfoxide (DMSO), Fisher Scientific, Fair Lawn, N.J. (catalogue number D-136-1).
The methods used for tissue or cell culture are as follows: a vial of HUAEC (>0.5×10^6 cells) was thawed and seeded in two 75 cm^2 flasks with 15 ml EGM-2 medium each. Cells were grown over night and medium was changed. Media in the flasks were changed on a Monday, Wednesday, Friday schedule. Cells were split at approximately 80% confluency (using trypsin). Media were removed and the flasks were washed with 10 ml 1×PBS. The PBS was removed, 1.5 ml trypsin-EDTA solution was added and incubated for 5 min at 37° C. Three ml of FBS added and the cells were counted. The cells were centrifuged at 200×G for 5 min, resuspended in EGM-2 medium and distributed into new 75 cm2 flasks @ 3000-5000 cells per cm2.
To prepare for the Ca2+-influx assay, cells were distributed into one black 96 well plate @ 10^5 cells/well. Cells were allowed to adhere overnight and the medium was then removed. Fifty μg Fura-2 was dissolved in 50 μl DMSO and added to 10 ml PBS/2% FBS. The cells were stained with 20 μl of 5 μg/ml Fura-2 in PBS/2% FBS for 2 h, then 180 μl EGM-2 medium supplemented with CaCl2 and glucose was added (10 mM CaCl2 and 11.1 mM glucose final concentrations).
To prepare analogs for testing, 50 uM terlipressin (or derivative) stock solution in DMSO was prepared. […] (placed on ice after incubation).
To measure Ca-influx, Fura-2 fluorescence was measured for 4 repetitions per well at 340 nm ex/510 nm em and 420 nm ex/510 nm em (4 measurement before and 16 after injection of drug. At t=12 sec, 20 μl of terlipressin or derivative was injected as a 500 nM solution (or serum) for a final concentration of 50 nM per well. Fura-2 fluorescence was measured for […] per well at 340 nm ex/510 nm em and 420 nm ex/510 nm em (4 measurements before and 16 after injection of drug). The controls included injected human serum alone, and terlipressin or derivative dissolved in PBS as […]. All measurements were done in hexuplicate.
Data analysis was done using Graphpad Prism version 5.0 software (Graphpad software Inc, San Diego, Calif.). […]

“Also recorded” adds a separate entry of the source. Where a SMILES comes first, the peptide text is derived from it. Bridges are numbered along the chain shown (N, C = ends). The star is where a group is joined. Lauroyl = CCCCCCCCCCCC(=O)*

Take `CCCCCCCCCCCC(=O)NCC(=O)NCC(=O)NCC(=O)N[C@H]1CSSC[C@@H](C(=O)N2CCC[C@H]2C(=O)N[C@@H](CCCCN)C(=O)NCC(N)=O)NC(=O)[C@H](CC(N)=O)NC(=O)[C@H](CCC(N)=O)NC(=O)[C@H](Cc2ccccc2)NC(=O)[C@H](Cc2ccc(O)cc2)NC1=O` [C12TerA, CH3(CH2)10CO-Gly-Gly-Gly-Cys-Tyr-Phe-Gln-Asn-Cys-Pro-Lys-Gly-NH2] (Lauroyl-GGGCYFQNCPKG-NH2; disulfide 4-9): the solubility in water entry in series [1] is “limited solubility in water”. The “Activity of Various Vasopressin Analogs, 0 h” value in series [2] (0 h pre-incubation in pooled human serum at 37° C. (serum present), Ca-influx in HUAEC, 50 nM per well) is recorded as “+++”. In addition, the “Activity of Various Vasopressin Analogs, 1 h” value in series [2] (1 h pre-incubation in pooled human serum at 37° C., Ca-influx in HUAEC, 50 nM per well) is “+++”. Besides, the “Activity of Various Vasopressin Analogs, 2 h” value in series [2] (2 h pre-incubation in pooled human serum at 37° C., Ca-influx in HUAEC, 50 nM per well) is “+++”. Moreover, in series [2] (4 h pre-incubation in pooled human serum at 37° C., Ca-influx in HUAEC, 50 nM per well), the “Activity of Various Vasopressin Analogs, 4 h” value is “+++”. Also, the “calcium influx after 2-hour incubation in human serum” value in series [2] (FIG. 11, Fura-2 fluorescence, in words) is given as “able to induce calcium influx; also recorded: pronounced calcium influx”.
